Experimental data from US9302999B2, “Substituted triazoles as herbicides” (E. I. DU PONT DE NEMOURS AND COMPANY, priority 2012, dated 2016).

What was measured:
Type in all cases: in vivo
[1] = tested on: barnyardgrass (Echinochloa crus-galli); test: Test F pre-/postemergence: barnyardgrass
In short: (§1)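 0–100 visual control scores, taken 14–21 d after application in the greenhouse. Preemergence treatment was made to silt loam soil at sowing. Postemergence sprays hit 1- to 4-leaf plants (2–18 cm) in peat/vermiculite mix. Surfactant-containing non-phytotoxic solvent served as the vehicle.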

[2] = tested on: beggarticks (hairy beggarticks, Bidens pilosa); test: Test F pre-/postemergence: beggarticks
Text: (§2) Seeds of plant species selected from corn (Zea mays), soybean (Glycine max), velvetleaf (Abutilon theophrasti), lambsquarters (Chenopodium album), poinsettia, wild (wild poinsettia, Euphorbia heterophylla), pigweed, palmer (palmer pigweed, Amaranthus palmeri), waterhemp (common waterhemp, Amaranthus rudis), surinam grass (Brachiaria decumbens), crabgrass, Brazil (Brazilian crabgrass, Digitaria horizontalis), panicum, fall (fall panicum Panicum dichotomiflorum), crabgrass, large (large crabgrass, Digitaria sanguinalis), foxtail, giant (giant foxtail, Setaria faberii), foxtail, green (green foxtail Setaria viridis), goosegrass (Eleusine indica), ragweed (common ragweed, Ambrosia elatior), barnyardgrass (Echinochloa crus-galli), sandbur (southern sandbur, Cenchrus echinatus), arrowleaf sida (Sida rhombifolia), ryegrass, Italian (Italian ryegrass, Lolium multiflorum), dayflower, VA (Virginia (VA) dayflower, Commelina virginica), field bindweed (Convolvulus arvensis), cocklebur (common cocklebur, Xanthium strumarium), morningglory (Ipomoea coccinea), nightshade (eastern black nightshade, Solanum ptycanthum), kochia (Kochia scoparia), nutsedge, yellow (yellow nutsedge, Cyperus esculentus), johnsongrass (Sorghum halepense), smartweed (ladysthumb smartweed, Polygonum persicaria), and beggarticks (hairy beggarticks, Bidens pilosa), were planted into a silt loam soil and treated preemergence with test chemicals formulated in a non-phytotoxic solvent mixture which included a surfactant. At the same time, plants selected from these crop and weed species and also pigweed (Amaranthus retroflexus), waterhemp_RES1 (ALS/Triazine resistant common waterhemp, Amaranthus rudis) and waterhemp_RES2 (ALS/HPPD resistant common waterhemp, Amaranthus rudis) were planted in pots containing a planting medium comprising spaghnum peat moss, vermiculite, wetting agent and starter nutrients treated with postemergence applications of some of the test chemicals formulated in the same manner. Plants ranged in height from 2 to 18 cm for postemergence treatments (1- to 4-leaf stage).
(§3) Treated plants and controls were maintained in a greenhouse for 14 to 21 days, after which time all species were compared to controls and visually evaluated. Plant response ratings, summarized in Table E, are based on a scale of 0 to 100 where 0 is no effect and 100 is complete control. A dash (-) response means no test result.

[3] = tested on: ryegrass, Italian (Italian ryegrass, Lolium multiflorum); test: Test F pre-/postemergence: ryegrass, Italian
In short: as §1

[4] = tested on: poinsettia, wild (wild poinsettia, Euphorbia heterophylla); test: Test F pre-/postemergence: poinsettia, wild
Text: as §2, §3

[5] = tested on: pigweed, palmer (palmer pigweed, Amaranthus palmeri); test: Test F pre-/postemergence: pigweed, palmer
Text: as §2, §3

[6] = Postemergence, 8 g ai/ha, scale 0 to 100
[7] = Postemergence, 16 g ai/ha, scale 0 to 100
[8] = Postemergence, 31 g ai/ha, scale 0 to 100
[9] = Postemergence, 62 g ai/ha, scale 0 to 100
[10] = Postemergence, 125 g ai/ha, scale 0 to 100
[11] = Preemergence, 16 g ai/ha, scale 0 to 100, 0 no effect, 100 complete control
[12] = Preemergence, 31 g ai/ha, scale 0 to 100, 0 no effect, 100 complete control
[13] = Preemergence, 62 g ai/ha, scale 0 to 100
[14] = Preemergence, 125 g ai/ha, scale 0 to 100
[15] = Preemergence, 250 g ai/ha, scale 0 to 100

For `Cc1nn(-c2ccnc(Cl)c2)nc1Cc1ccnc(C(F)(F)F)c1` [Compound 141], the “Plant response rating, Barnyardgrass” value [1, 6] was 10, the “Plant response rating, Barnyardgrass” value [1, 7] was 20 and the “Plant response rating, Barnyardgrass” value [1, 8] was 20. The “Plant response rating, Barnyardgrass” value [1, 9] was 30, the “Plant response rating, Barnyardgrass” value [1, 10] was 40 and the “Plant response rating, Beggarticks” value [2, 6] was 40. For the same molecule, the “Plant response rating, Beggarticks” value [2, 7] was 40, the “Plant response rating, Beggarticks” value [2, 8] was 50 and the “Plant response rating, Beggarticks” value [2, 9] was 60. For the same molecule, the “Plant response rating, Beggarticks” value [2, 10] was 75, the “Plant response rating, Ryegrass, Italian” value [3, 6] was 10 and the “Plant response rating, Ryegrass, Italian” value [3, 7] was 10. For the same molecule, the “Plant response rating, Ryegrass, Italian” value [3, 8] was 15, the “Plant response rating, Ryegrass, Italian” value [3, 9] was 25 and the “Plant response rating, Ryegrass, Italian” value [3, 10] was 40. For the same molecule, the “Plant response rating, Poinsettia, Wild” value [4, 6] was 60, the “Plant response rating, Poinsettia, Wild” value [4, 7] was 80 and the “Plant response rating, Poinsettia, Wild” value [4, 8] was 85. The “Plant response rating, Poinsettia, Wild” value [4, 9] was 95, the “Plant response rating, Poinsettia, Wild” value [4, 10] was 98 and the “Plant response rating, Pigweed, Palmer” value [5, 6] was 95. For the same molecule, the “Plant response rating, Pigweed, Palmer” value [5, 7] was 95, the “Plant response rating, Pigweed, Palmer” value [5, 8] was 95 and the “Plant response rating, Pigweed, Palmer” value [5, 9] was 100. For the same molecule, the “Plant response rating, Pigweed, Palmer” value [5, 10] was 100.

`Cc1nn(-c2ccc(F)cc2F)nc1Oc1ccnc(C(F)(F)F)c1` [Compound 146] was tested, and the “Plant response rating, Barnyardgrass” value [1, 11] was 0, the “Plant response rating, Barnyardgrass” value [1, 12] was 0 and the “Plant response rating, Barnyardgrass” value [1, 13] was 10. For the same molecule, the “Plant response rating, Barnyardgrass” value [1, 14] was 10, the “Plant response rating, Barnyardgrass” value [1, 15] was 20 and the “Plant response rating, Beggarticks” value [2, 11] was 0. For the same molecule, the “Plant response rating, Beggarticks” value [2, 12] was 0, the “Plant response rating, Beggarticks” value [2, 13] was 0 and the “Plant response rating, Beggarticks” value [2, 14] was 0. The “Plant response rating, Beggarticks” value [2, 15] was 0, the “Plant response rating, Ryegrass, Italian” value [3, 11] was 0 and the “Plant response rating, Ryegrass, Italian” value [3, 12] was 10. The “Plant response rating, Ryegrass, Italian” value [3, 14] was 20, the “Plant response rating, Ryegrass, Italian” value [3, 15] was 25 and the “Plant response rating, Poinsettia, Wild” value [4, 11] was 20. For the same molecule, the “Plant response rating, Poinsettia, Wild” value [4, 12] was 20, the “Plant response rating, Poinsettia, Wild” value [4, 14] was 40 and the “Plant response rating, Poinsettia, Wild” value [4, 15] was 40. For the same molecule, the “Plant response rating, Pigweed, Palmer” value [5, 11] was 85, the “Plant response rating, Pigweed, Palmer” value [5, 12] was 100 and the “Plant response rating, Pigweed, Palmer” value [5, 14] was 100. For the same molecule, the “Plant response rating, Pigweed, Palmer” value [5, 15] was 100.
